Measured values: PubChem BioAssay (NCI)
Several values for one entry are separate records, joined by “and”; a condition that tells them apart may be missing. Identical values can stand only once.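 Briefly, cells in 96-well plates were exposed to five compound concentrations for 48 h, and endpoints were estimated by linear interpolation. GI50 is the concentration that inhibits growth by half. Definition used: TGI = concentration required for complete inhibition of growth.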

Key:
Assay in all cases: NCI tumour cell line growth inhibition, 48 h
RXF-631 renal = system: RXF-631 renal
SNB-78 CNS = system: SNB-78 CNS
DLD-1 colon = system: DLD-1 colon
DMS 273 small cell lung = system: DMS 273 small cell lung
LXFL 529 NSCLC = system: LXFL 529 NSCLC
DMS 114 small cell lung = system: DMS 114 small cell lung
M19-MEL melanoma = system: M19-MEL melanoma
HOP-18 NSCLC = system: HOP-18 NSCLC
MDA-N = system: MDA-N
SN12K1 renal = system: SN12K1 renal

SMILES | TGI (RXF-631 renal) [µM] | TGI (SNB-78 CNS) | TGI (DLD-1 colon) | TGI (DMS 273 small cell lung) | TGI (LXFL 529 NSCLC) [µM] | TGI (DMS 114 small cell lung) | TGI (M19-MEL melanoma) | TGI (HOP-18 NSCLC) | TGI (MDA-N) [µM] | further results
Cc1ccc(S(=O)(=O)c2ccccn2)cc1 | > 100 | > 100 µM | > 100 µM | > 100 µM | > 100 | > 100 µM | > 100 µM | > 100 µM |  | 
CC1CCCC2(O1)OC1CC(=O)OC1C1=C2C(=O)c2ccccc2C1=O (stereo unspecified) |  | 4.85 µM |  | 3.82 µM | 2.76 | 3.35 µM | 7.36 µM |  |  | 
C[N+](C)(C)CC(=O)N/N=C(\C(=O)Nc1ccc(Cl)cc1)C1C(=O)N(c2ccccc2)N=C1N (stereo unspecified) |  | > 100 µM | > 100 µM | > 100 µM | > 100 | > 100 µM | > 100 µM |  |  | 
Nc1nc(N)c2nn(-c3ccc(C(=O)O)cc3)nc2n1 |  |  |  |  |  |  |  |  | > 100 | 
Cc1nc2c(=O)n(C)c(=O)nc-2n(-c2ccc(Cl)cc2)c1C | > 100 | > 100 µM | > 100 µM | > 100 µM | > 100 | > 100 µM | > 100 µM | > 100 µM |  | 
Cc1ccc(CCNC(=S)SCC(NC(=O)CCC(N)C(=O)O)C(=O)NCC(=O)O)cc1 (stereo unspecified) | 5.62 |  | 2.63 µM | 1.68 µM | 2.12 | 2.72 µM | 4.07 µM | 7.76 µM |  | 
C[CH2][Ge]1([CH2]C)[CH2]CC2(CCN(CCCN(C)C)C2)C[CH2]1 |  |  |  | 4.57 µM |  | 3.88 µM | 2.63 µM | 8.25 µM | 1.02 | GI50 (DMS 273 small cell lung): 2400 nM; GI50 (SN12K1 renal): 1970 nM; TGI (SN12K1 renal): 4.38 µM; GI50 (MDA-N): 369 nM; GI50 (DMS 114 small cell lung): 2110 nM; GI50 (M19-MEL melanoma): 1470 nM; GI50 (HOP-18 NSCLC): 3.19 µM
COc1ccc(/C=C(\NC(=O)c2ccccc2)c2nc3ccccc3[nH]2)cc1 |  |  | > 100 µM | > 100 µM | > 100 | 90.6 µM | > 100 µM |  |  | 
COc1cc(C2C(C(=O)Nc3ccc(Cl)c(Cl)c3)=C(C)NC(C)=C2C(=O)Nc2ccc(Cl)c(Cl)c2)ccc1O |  | 53.5 µM | 22.4 µM |  | 21.2 | 24.2 µM | 32 µM |  |  | 
O=C1c2ccccc2CC1C1(O)C(=O)Nc2c(Cl)cc(Cl)cc21 (stereo unspecified) | > 100 | > 100 µM | > 100 µM | > 100 µM | > 100 | 68.8 µM |  | > 100 µM |  | 
COC(=O)c1cc(CNCCc2c[nH]c3ccccc23)on1 | > 100 |  | > 100 µM | > 100 µM | > 100 | > 100 µM | > 100 µM |  | > 100 | 
CC(C)(O)C1CC(=O)C(C)(C2C(O)CC3(C)C4CC=C5C(CCC(O)C5(C)C)C4(C)C(=O)CC23C)O1 (stereo unspecified) |  |  |  |  |  |  |  |  | > 100 | 
CCOc1ccccc1Nc1nc(C)c(C(=O)CC(=O)C(=O)Nc2ccccc2)s1 |  | > 100 µM | > 100 µM | > 100 µM | > 100 | > 100 µM | > 100 µM | > 100 µM |  | 
O=C(CN1C(=O)c2ccccc2C1=O)NC1(C(=O)O)CCCC1 |  |  |  |  |  |  |  |  | > 100 | 
Cn1c(N)cc(=O)nc1N |  |  |  |  |  |  |  |  | > 100 | 
Cc1ccc(SCN2CCCCC2)cc1 (tested in a mixture with another compound) |  |  |  |  |  |  |  |  | 22.7 | 
COc1cccc2c1C(=N)c1c(O)c3c(c(O)c1C2=O)C[C@@](O)(C(C)=O)C[C@@H]3OC1CC(N)C(O)C(C)O1 (stereo partly specified) | 3.11 | 8.68 µM and 18.9 µM | 5.7 µM and 14.9 µM | 1.65 µM and 1.86 µM | 3.54 | 0.73 µM and 1.46 µM | 2.15 µM and 2.64 µM | 3.48 µM and 2.56 µM | 10.4 | TGI (SN12K1 renal): 3.05 µM; GI50 (MDA-N): 1150 nM
COc1ccc2nccc(C3OC(=O)N4CCC(=O)CC34)c2c1 (stereo unspecified) | > 100 | > 100 µM |  |  | > 100 |  | > 100 µM |  |  | 
Cn1c(N)c(N=Nc2ccc(S(N)(=O)=O)cc2)c(=O)n(C)c1=O |  |  |  |  |  |  |  |  | > 100 | 
Cc1cn2cc(-c3ccncc3)nc2s1 | > 100 | > 100 µM | > 100 µM | > 100 µM | > 100 | > 100 µM | > 100 µM | > 100 µM |  | 

SMILES | TGI (RXF-631 renal) [µM] | TGI (SNB-78 CNS) | TGI (DLD-1 colon) | TGI (DMS 273 small cell lung) | TGI (LXFL 529 NSCLC) [µM] | TGI (DMS 114 small cell lung) | TGI (M19-MEL melanoma) | TGI (HOP-18 NSCLC) | TGI (MDA-N) [µM] | further results
O=C(N/N=C/c1cc(-c2ccccc2Cl)c(-c2ccccc2Cl)o1)c1ccncc1 | > 100 |  | > 100 µM |  | > 100 | > 100 µM | > 100 µM |  |  | 
CC(=O)OC12CCCCC1C1(CCCC1)NC2=O (stereo unspecified) |  | > 100 µM | > 100 µM |  | > 100 | > 100 µM | > 100 µM | > 100 µM |  | 
CCCC1C2=C(C(=O)OC2=O)C2C(CC)CC3=C(C(=O)OC3=O)C12 (stereo unspecified) |  |  |  |  |  |  |  |  | > 100 | 
COc1cc(/C=C/C(=O)C(C)(C)C)cc(OC)c1OC |  |  | > 100 µM | > 100 µM | 93.5 | 71.5 µM | > 100 µM | > 100 µM |  | 
O=C1[C@@H]2C3C=CC([C@H]4C(=O)N(CO)C(=O)[C@@H]34)[C@@H]2C(=O)N1CO |  | > 100 µM | > 74.1 µM | > 57.3 µM | > 100 | > 62.2 µM | > 58.8 µM | 86.4 µM |  | 
CCCCCC1C2C(=O)NC(=O)C1C(=O)NC2=O (stereo unspecified) |  |  | > 100 µM | > 100 µM | > 100 | > 100 µM | > 100 µM |  |  | 
C/C=C\C(C)=C/C(C)C(=O)CC(O)CC1CC(=O)NC(=O)C1 (stereo unspecified) |  |  |  |  |  |  |  |  | > 100 | 
O=C1c2cccc3cc4ccccc4c(c23)C(=O)N1CCCNCCNCCCN1C(=O)c2cccc3cc4ccccc4c(c23)C1=O |  |  |  |  |  |  |  |  | 1.82 | 
CC/C(=C(\c1ccccc1)c1ccc(OCC[N+](C)(C)C)cc1)c1ccccc1 | 41 | 34.3 µM | 37.9 µM | 19.9 µM | 24.6 | 21.7 µM | 26.2 µM | 26.2 µM |  | 
COc1cc(OC)c(-c2oc3ccccc3c(=O)c2O)c(OC)c1 |  |  |  |  |  |  |  |  | 2.93 | 
CC(=O)NC(Cc1ccccc1)C(=S)N1CCCC1 (stereo unspecified) | > 100 | > 100 µM | > 100 µM | > 100 µM | > 100 | > 100 µM | > 100 µM | > 100 µM |  | 
O=C(Cc1nc2ccccc2s1)C(=O)Nc1ccccc1C(F)(F)F |  | > 100 µM | > 100 µM | > 100 µM | > 100 | > 100 µM | > 100 µM | > 100 µM |  | 
NCCN.O=N[O-].O=N[O-].O=N[O-].O=N[O-].[Co+3].[K+] |  | > 100 µM | > 100 µM |  | > 100 | > 100 µM | > 100 µM |  |  | GI50 (SNB-78 CNS): > 100 µM; GI50 (DLD-1 colon): > 100 µM; GI50 (LXFL 529 NSCLC): > 100 µM; GI50 (DMS 114 small cell lung): > 100000 nM; GI50 (M19-MEL melanoma): > 100000 nM
Cc1ccc(S(=O)(=O)NC2(C=O)CCC(C(C)(C)C)CC2)cc1 (stereo unspecified) | > 100 | > 100 µM | > 100 µM | > 100 µM | > 100 | 62.8 µM | 73.8 µM | > 100 µM |  | 
CCc1cccc(C(C)C)c1C1C(=O)C(=O)N(c2nc3ccccc3s2)C(=O)C1=O | > 100 | > 100 µM | > 100 µM | > 100 µM | > 100 | > 100 µM | > 100 µM | > 100 µM |  | 
O=C(NC(c1ccccc1)C(O)C(=O)OCc1ccc2c(c1)C(=O)c1ccccc1C2=O)c1ccccc1 (stereo unspecified) | > 100 | > 92.4 µM | > 100 µM | > 100 µM | > 100 | > 100 µM | > 100 µM | 10.5 µM | > 100 | TGI (SN12K1 renal): 3.27 µM
CC[N+]1(C)CCC(O)(/C=C/c2ccccc2)C(C(=O)/C=C/c2ccccc2)C1 (stereo unspecified) |  | > 78.7 µM | 37.3 µM | 47.3 µM | 6.7 | 16.9 µM | 27.3 µM | 31.3 µM | 23.7 | 
Cc1nn(C(=O)CC(=O)Nc2ccccc2Cl)c(C)c1N=Nc1ccccc1Cl | > 100 | > 100 µM | > 100 µM | > 100 µM | > 100 | > 100 µM | > 100 µM | > 100 µM |  | 
O=[N+]([O-])c1ccc(-c2ccc(C3=Nn4c(nnc4-c4ccc(Cl)cc4)SC3)o2)cc1 | > 100 |  | > 100 µM | > 100 µM | > 100 | > 100 µM | > 100 µM | > 100 µM |  | 
